Measured values as given in ChEMBL document CHEMBL3832047, “DailyMed|setid=077bf6ff-afb8-4cb7-9faa-fbb6fd9f037f | YAZ - drospirenone and ethinyl estradiol|Physicians Total Care, Inc”.

Assays:
[1] = (§1) Evaluation pharmacokinetic parameters for Drosporine following multiple co-administration of Drosporine tablets and 0.02 mg ethinyl estradiol to 23 healthy females.; type: ADME, organism-based; parameters: dose 3 mg, route oral; conditions: human, in vivo, dosed compound id 30, dosed compound name DROSPIRENONE, gender female, regimen every 24h, study dosing duration 21 days, tissue Serum
[2] = tested on: Homo sapiens; experiment: as §1; type: ADME, organism-based; parameters: dose 3 mg, route oral; conditions: in vivo, po, dosed compound id 30, dosed compound name DROSPIRENONE, gender female, regimen every 24h, study dosing duration 21 days, tissue Serum

Q: Which Cmax ([1]; po, sampling time1 1 day) does the source give for C[C@]12CCC(=O)C=C1[C@@H]1C[C@@H]1[C@H]1[C@@H]3[C@@H]4C[C@@H]4[C@@]4(CCC(=O)O4)[C@@]3(C)CC[C@@H]12 [DROSPIRENONE] here?
A: Its Cmax is 38.4 ng/mL.

Q: What about the Tmax ([1]; dose 3 mg, route oral, sampling time1 1 day) of the same compound?
A: Its Tmax is 1 to 2 h.

Q: And the half-life ([1]; dose 3 mg, route oral, sampling time1 21 day)?
A: The half-life was 30.8 h.

Q: And the “AUC(0-24)” value ([2]; sampling time1 1 day)?
A: The value was 268 ng·h/mL.

Q: And the “AUC(0-24)” value ([2]; sampling time1 21 day)?
A: Its value is 763 ng·h/mL.

Q: What about the Cmax ([2]; sampling time1 21 day) of the same compound?
A: Its Cmax is 70.3 ng/mL.
